Measured values: ChEMBL document CHEMBL5247609, “Novel nitric oxide-releasing derivatives of pyranocarbazole as antitumor agents: Design, synthesis, biological evaluation, and nitric oxide release studies” (Eur J Med Chem, 2022)
Active and inactive are the calls of the source. The rule behind the calls is not given here.

Tests used:
MDA-MB-231 [1] = test: Induction of apoptosis in human MDA-MB-231 cells assessed as viable cells measured at 2 uM after 48 hrs by FITC-Annexin-V and propidium iodide based flow cytometric analysis (reference value: 94.4% ); format: functional; settings: read-out: Activity
MDA-MB-231 [2] = test: Induction of apoptosis in human MDA-MB-231 cells assessed as downregulation of Bcl-2 by Western blotting analysis; format: functional, cell-based; settings: dose 0.5-2 µM
MDA-MB-231 [3] = test: Induction of cell cycle arrest in human MDA-MB-231 cells assessed as increase in CDK6 expression at 0.5 to 2 uM by Western blotting analysis; format: functional, cell-based; settings: dose 0.5-2 µM, time 24.0 hrs
MX1 = test: Induction of apoptosis in human MX1 cells assessed as necrotic cells measured at 5 uM after 48 hrs by FITC-Annexin-V and propidium iodide based flow cytometric analysis (reference value: 0.055 %); format: functional
MDA-MB-231 [4] = test: Antitumor activity against human MDA-MB-231 cells xenografted in BALBC mouse assessed as inhibition of tumor growth at 24 mg/kg, ip administered every 3 days for 21 days relative to control; format: functional; settings: MDA-MB-231, 504 h, time 21 day, read-out: TGI
MDA-MB-231 [5] = test: Induction of apoptosis in human MDA-MB-231 cells assessed as total apoptotic cells measured at 5 uM after 48 hrs by FITC-Annexin-V and propidium iodide based flow cytometric analysis (reference value: 6.2%); format: functional
MDA-MB-231 [6] = test: Induction of apoptosis in human MDA-MB-231 cells assessed as necrotic cells measured at 2 uM after 48 hrs by FITC-Annexin-V and propidium iodide based flow cytometric analysis (reference value: 0.253 %); format: functional

`CC1(C)C=Cc2c(c(/C=C/C(=O)NCCOc3no[n+]([O-])c3S(=O)(=O)c3ccccc3)cc3c2[nH]c2ccc(C(C)(C)C)cc23)O1` was tested. Which viability at 2 µM (MDA-MB-231 [1]) did it give?
The viability at 2 µM was 75.9%.

And the Activity (MDA-MB-231 [2])?
Its Activity is “Dose-Dependent Effect”.

What about the Activity (MDA-MB-231 [3]) of the same compound?
The Activity was “Active”.

And the Activity (MX1)?
The Activity was 0.276%.

And the inhibition in vivo at 24 mg/kg (MDA-MB-231 [4])?
The inhibition in vivo at 24 mg/kg was 84.3%.

What about the Activity (MDA-MB-231 [5]) of the same compound?
Its Activity is 71.2%.

What about the Activity (MDA-MB-231 [6]) of the same compound?
The Activity was 0.535%.
